In patent publication US20060110451A1, “Formulations of [1,4]diazepino[6,7,1-IJ]quinoline derivatives” (priority 2004, published 2006):
Where two headings read alike, the source gives them in different places.

Assay: Ascending multiple dose pharmacokinetics of enteric coated capsules in healthy subjects
Assay type: in vivo, human
Conditions: human, plasma, po, healthy subjects
Description: Ascending multiple doses of 25, 50, 75, 100, 150, and 250 mg Compound A.HCl were administered as twice-daily regimen (q12h) for 14 days in cohorts of 8 healthy subjects (6 active and 2 placebo). Blood samples for Compound A.HCl analysis were obtained on days 1 and 14 within 2 hours of test article administration and at various time points from 0.5 to 48 hours after test article administration. Doses were administered orally after an overnight fast of at least 10 hours on these 2 days. Trough PK samples were collected on days 7, 10, and 12 to assess whether steady-state had been reached.
A total of 48 subjects contributed pharmacokinetic data for this analysis. […] FIGS. 4A and 4B show the relationship between Cmax vs. dose and AUC vs. dose, respectively.

Compound: Cl.c1cc2c3c(c1)[C@H]1CCC[C@H]1CN3CCNC2 [Compound A.HCl, (9aR,12aS)-4,5,6,7,9,9a,10,11,12,12a-decahydrocyclopenta[c][1,4]diazepino[6,7,1-ij]quinoline hydrochloride]
- half-life (75 mg, single oral dose 75 mg, day 1, read-out: t1/2 (Mean) (converted)): 8.22 h
- AUC(0-t) (100 mg, multiple oral doses (q12 h) 100 mg, day 14, read-out: AUCss (AUC0-12) (Geom. Mean)): 49.2 ng·h/mL
- AUC(0-t) (100 mg, multiple oral doses (q12 h) 100 mg, day 14, read-out: AUCss (AUC0-12) (Mean)): ~62.8 ng·h/mL
- Cmax (100 mg, multiple oral doses (q12 h) 100 mg, day 14, read-out: Cmax (Geom. Mean)): 6.45 ng/mL
- Cmax (100 mg, multiple oral doses (q12 h) 100 mg, day 14, read-out: Cmax (Mean)): 7.81 ng/mL
- Tmax (100 mg, multiple oral doses (q12 h) 100 mg, day 14, read-out: Tmax (Geom. Mean)): 5.3 h
- Tmax (100 mg, multiple oral doses (q12 h) 100 mg, day 14, read-out: Tmax (Mean)): 5.5 h
- half-life (100 mg, multiple oral doses (q12 h) 100 mg, day 14, read-out: t1/2 (Geom. Mean) (converted)): 7.72 h
- half-life (100 mg, multiple oral doses (q12 h) 100 mg, day 14, read-out: t1/2 (Mean) (converted)): 7.86 h
- AUC(0-inf) (100 mg, single oral dose 100 mg, day 1, read-out: AUC0-∞ (Geom. Mean)): 47.2 ng·h/mL
- AUC(0-inf) (100 mg, single oral dose 100 mg, day 1, read-out: AUC0-∞ (Mean)): 55.5 ng·h/mL
- Cmax (100 mg, single oral dose 100 mg, day 1, read-out: Cmax (Geom. Mean)): 3.64 ng/mL
- Cmax (100 mg, single oral dose 100 mg, day 1, read-out: Cmax (Mean)): 4.38 ng/mL
- Tmax (100 mg, single oral dose 100 mg, day 1, read-out: Tmax (Geom. Mean)): 5.3 h
- Tmax (100 mg, single oral dose 100 mg, day 1, read-out: Tmax (Mean)): 5.5 h
- half-life (100 mg, single oral dose 100 mg, day 1, read-out: t1/2 (Geom. Mean) (converted)): 9.31 h
- half-life (100 mg, single oral dose 100 mg, day 1, read-out: t1/2 (Mean) (converted)): 9.9 h
- AUC(0-t) (150 mg, multiple oral doses (q12 h) 150 mg, day 14, read-out: AUCss (AUC0-12) (Geom. Mean)): 90.7 ng·h/mL
- AUC(0-t) (150 mg, multiple oral doses (q12 h) 150 mg, day 14, read-out: AUCss (AUC0-12) (Mean)): ~110 ng·h/mL
- Cmax (150 mg, multiple oral doses (q12 h) 150 mg, day 14, read-out: Cmax (Geom. Mean)): 10.7 ng/mL
- Cmax (150 mg, multiple oral doses (q12 h) 150 mg, day 14, read-out: Cmax (Mean)): 13.1 ng/mL
- Tmax (150 mg, multiple oral doses (q12 h) 150 mg, day 14, read-out: Tmax (Geom. Mean)): 5 h
- Tmax (150 mg, multiple oral doses (q12 h) 150 mg, day 14, read-out: Tmax (Mean)): 5.2 h
- half-life (150 mg, multiple oral doses (q12 h) 150 mg, day 14, read-out: t1/2 (Geom. Mean) (converted)): 7 h
- half-life (150 mg, multiple oral doses (q12 h) 150 mg, day 14, read-out: t1/2 (Mean) (converted)): 7.04 h
- AUC(0-inf) (150 mg, single oral dose 150 mg, day 1, read-out: AUC0-∞ (Geom. Mean)): 55.3 ng·h/mL
- AUC(0-inf) (150 mg, single oral dose 150 mg, day 1, read-out: AUC0-∞ (Mean)): 70.2 ng·h/mL
- Cmax (150 mg, single oral dose 150 mg, day 1, read-out: Cmax (Geom. Mean)): 3.67 ng/mL
- Cmax (150 mg, single oral dose 150 mg, day 1, read-out: Cmax (Mean)): 5.05 ng/mL
- Tmax (150 mg, single oral dose 150 mg, day 1, read-out: Tmax (Geom. Mean)): 5.6 h
- Tmax (150 mg, single oral dose 150 mg, day 1, read-out: Tmax (Mean)): 5.7 h
- half-life (150 mg, single oral dose 150 mg, day 1, read-out: t1/2 (Geom. Mean) (converted)): 9 h
- half-life (150 mg, single oral dose 150 mg, day 1, read-out: t1/2 (Mean) (converted)): 9.08 h
- AUC(0-t) (250 mg, multiple oral doses (q12 h) 250 mg, day 14, read-out: AUCss (AUC0-12) (Geom. Mean)): 218 ng·h/mL
- AUC(0-t) (250 mg, multiple oral doses (q12 h) 250 mg, day 14, read-out: AUCss (AUC0-12) (Mean)): ~235 ng·h/mL
- Cmax (250 mg, multiple oral doses (q12 h) 250 mg, day 14, read-out: Cmax (Geom. Mean)): 25.6 ng/mL
- Cmax (250 mg, multiple oral doses (q12 h) 250 mg, day 14, read-out: Cmax (Mean)): 26.8 ng/mL
- Tmax (250 mg, multiple oral doses (q12 h) 250 mg, day 14, read-out: Tmax (Geom. Mean)): 5.9 h
- Tmax (250 mg, multiple oral doses (q12 h) 250 mg, day 14, read-out: Tmax (Mean)): 6.2 h
- half-life (250 mg, multiple oral doses (q12 h) 250 mg, day 14, read-out: t1/2 (Geom. Mean) (converted)): 6.99 h
- half-life (250 mg, multiple oral doses (q12 h) 250 mg, day 14, read-out: t1/2 (Mean) (converted)): 7.12 h
- AUC(0-inf) (250 mg, single oral dose 250 mg, day 1, read-out: AUC0-∞ (Geom. Mean)): 84.7 ng·h/mL
- AUC(0-inf) (250 mg, single oral dose 250 mg, day 1, read-out: AUC0-∞ (Mean)): 95.5 ng·h/mL
- Cmax (250 mg, single oral dose 250 mg, day 1, read-out: Cmax (Geom. Mean)): 5.91 ng/mL
- Cmax (250 mg, single oral dose 250 mg, day 1, read-out: Cmax (Mean)): 6.27 ng/mL
- Tmax (250 mg, single oral dose 250 mg, day 1, read-out: Tmax (Geom. Mean)): 5.9 h
- Tmax (250 mg, single oral dose 250 mg, day 1, read-out: Tmax (Mean)): 6 h
- half-life (250 mg, single oral dose 250 mg, day 1, read-out: t1/2 (Geom. Mean) (converted)): 9.91 h
- half-life (250 mg, single oral dose 250 mg, day 1, read-out: t1/2 (Mean) (converted)): 10.4 h
